Experimental data reported in PMC6150270, “Solvent and Copper Ion-Induced Synthesis of Pyridyl–Pyrazole-3-One Derivatives: Crystal Structure, Cytotoxicity” (Molecules : A Journal of Synthetic Chemistry and Natural …, 2017).

Columns and labels:
NCI-H460 tumor cell line = experiment: MTT cytotoxicity assay, NCI-H460; assay type: cell-based, human; details: for IC50: 48 h, MTT, mean ± SD; for inhibition at 20 µM: read-out: Inhibition rate NCI-H460
Protocol: (§1) The cytotoxicities of compounds 1–5 against the human tumor cell lines BEL-7404, HepG2, NCI-H460, T-24 and A549, as well as human normal liver cell line HL-7702, were tested by the MTT assay. Cisplatin was also tested for comparison.
(§2) All the cells were maintained in DMEM (Dulbecco’s Modified Eagle Medium) supplemented with 10% fetal calf serum, 100 units/mL ampicillin and […] streptomycin sulfate at 37 °C in a humidified atmosphere under 5% CO2. Compounds 1–5 were dissolved in DMSO at a concentration of 2.0 mM stock solution. The stock was diluted by PBS to the required concentration immediately before use.
(§3) Cisplatin was prepared according to a literature procedure. The cells were all grown in 96-well, flat-bottomed microtiter plates. Compounds 1–5 and cisplatin were dissolved in the culture medium (containing 1% DMSO) to a concentration of 100 μg/mL. The resultant solutions were subsequently added to a set of wells. The wells for control contained the supplemented medium with 1% DMSO. The microtiter plates were incubated at 37 °C in a humidified atmosphere of 5% CO2/95% air for a further 48 h. At the end of each incubation period, the 3-(4,5-dimethylthiazol-2-yl)-2,5-diphenyltetrazolium bromide (MTT) solution (10 μL, 5 mg/mL) was added into each well and the cultures were further incubated for 6 h under the same conditions. After the removal of the supernatant, DMSO (100 μL) was added to dissolve the formazan crystals. The absorbance of the solution was read by an enzyme-labeled microplate reader with 490/630 nm double wavelength measurement. The cytotoxicity was evaluated based on the percentage of cell survival in a dose-dependent manner relative to the negative control. The final IC50 values were calculated by the Bliss method (n = 5). All tests were repeated in at least three independent trials.

[1] = tested on: normal liver cell line HL-7702; experiment: MTT cytotoxicity assay, HL-7702; assay type: cell-based, human; details: normal liver cells; for IC50: 48 h, MTT, mean ± SD; for inhibition at 20 µM: read-out: Inhibition rate HL-7702
Protocol: as §1, §2, §3

HepG2 tumor cell line = experiment: MTT cytotoxicity assay, HepG2; assay type: cell-based, human; details: for IC50 / inhibition at 20 µM: Homo sapiens, HepG2; for IC50: 48 h, mean ± SD; for IC50 / Growth inhibition on HepG2 cell lines (in words): MTT; for inhibition at 20 µM: read-out: Inhibition rate HepG2; for Cytotoxicity toward HepG2 enhanced compared with normal liver cell HL-7702: ratio of IC50 HL-7702 to IC50 HepG2
Protocol: as §1, §2, §3

T-24 tumor cell line = experiment: MTT cytotoxicity assay, T-24; assay type: cell-based, human; details: for IC50: 48 h, MTT, mean ± SD; for inhibition at 20 µM: read-out: Inhibition rate T-24
Protocol: as §1, §2, §3

BEL-7404 tumor cell line = experiment: MTT cytotoxicity assay, BEL-7404; assay type: cell-based, human; details: for IC50: 48 h, MTT, mean ± SD; for inhibition at 20 µM: read-out: Inhibition rate BEL-7404
Protocol: as §1, §2, §3

A549 tumor cell line = experiment: MTT cytotoxicity assay, A549; assay type: cell-based; details: Homo sapiens; for IC50: 48 h, MTT, mean ± SD; for inhibition at 20 µM: complexes 1-5 at 20 μM, incubation 48 h, read-out: Inhibition rate A549
Protocol: as §1, §2, §3

[2] = Homo sapiens, NCI-H460, complexes 1-5 at 20 μM, incubation 48 h
[3] = Homo sapiens, L02, complexes 1-5 at 20 μM, incubation 48 h
[4] = complexes 1-5 at 20 μM, incubation 48 h
[5] = Homo sapiens, complexes 1-5 at 20 μM, incubation 48 h
[6] = Homo sapiens, BEL-7404, complexes 1-5 at 20 μM, incubation 48 h

Structure (SMILES)	IC50 (NCI-H460 tumor cell line; Homo sapiens, NCI-H460) [µM]	inhibition at 20 µM (NCI-H460 tumor cell line; [2]) [%]	IC50 ([1]; Homo sapiens, L02) [µM]	inhibition at 20 µM [1, 3] [%]	IC50 (HepG2 tumor cell line) [µM]	inhibition at 20 µM (HepG2 tumor cell line; [4]) [%]	Growth inhibition on HepG2 cell lines (in words) (HepG2 tumor cell line)	Cytotoxicity toward HepG2 enhanced compared with normal liver cell HL-7702 (HepG2 tumor cell line) [times]	IC50 (T-24 tumor cell line; Homo sapiens) [µM]	inhibition at 20 µM (T-24 tumor cell line; [5]) [%]	IC50 (BEL-7404 tumor cell line; Homo sapiens, BEL-7404) [µM]	inhibition at 20 µM (BEL-7404 tumor cell line; [6]) [%]	IC50 (A549 tumor cell line) [µM]	inhibition at 20 µM (A549 tumor cell line) [%]	further results
COC(=O)c1cc(O)n(-c2cccc(Br)n2)n1 [Compound 2, Methyl 1-(6-bromo-2-pyridinyl)-5-hydroxy-1H-pyrazole-3-carboxylate]	40.7 ± 0.54	38 ± 0.62	118 ± 3.34	24.7 ± 0.59	29.8 ± 0.91	43 ± 0.74	weakly growth inhibition	3.98	46.2 ± 0.87	42.5 ± 0.96	125 ± 1.87	20.2 ± 1.18	44.8 ± 1.12	22.4 ± 1.74	
COC(=O)C1=NN(c2cccc(Br)n2)C2(C(C(=O)O)=NN(c3cccc(Br)n3)C2O)C1(C(=O)OC)c1c(C(=O)OC)nn(-c2cccc(Br)n2)c1O (stereo not shown) [Compound 5, 1,8-Bis(6-bromopyridin-2-yl)-4-(1-(6-bromopyridin-2-yl)-5-hydroxy-3-(methoxycarbonyl)-1H-pyrazol-4-yl)-9-hydroxy-3,4-bis(methoxycarbonyl)-1,2,7,8-tetraazaspiro[4.4]nona-2,6-diene-6-carboxylic acid]	94.56 ± 0.41	25.4 ± 0.34	102.3 ± 0.85	26.9 ± 0.79	175.2 ± 1.1	19.5 ± 1.05			76 ± 1.16	35.9 ± 1.26	84.3 ± 1.01	27.2 ± 0.94	77.56 ± 0.72	29.4 ± 0.65	
COC(=O)C1=NN(c2cccc(Br)n2)C(=O)C1(c1c(C(=O)OC)nn(-c2cccc(Br)n2)c1O)c1c(C(=O)OC)nn(-c2cccc(Br)n2)c1O [Compound 3, Trimethyl 1,1′,1′′-tris(6-bromo-2-pyridinyl)-5,5′′-dihydroxy-5′-oxo-1′,5′-dihydro-1H,1′′H-4,4′: 4′,4′′-terpyrazole-3,3′,3′′-tricarboxylate]	38 ± 0.89	42.5 ± 2.27	151 ± 3.06	22.2 ± 1.05	54.7 ± 0.81	41 ± 1.27		2.76	85.38 ± 0.67	32 ± 0.89	112 ± 2.78	24.6 ± 0.75	33.6 ± 1.07	33.3 ± 2.51	
COC(=O)c1cc(OC(C)=O)n(-c2cccc(Br)n2)n1 [Compound 1, Methyl 5-(acetyloxy)-1-(6-bromo-2-pyridinyl)-1H-pyrazole-3-carboxylate]	109 ± 1.65	34 ± 1.76	111 ± 2.84	26.5 ± 0.42	37.1 ± 0.54	47.21 ± 0.44	weakly growth inhibition	2.98	70.5 ± 1.33	37.6 ± 1.72	66.5 ± 1.13	38.2 ± 1.99	37.6 ± 1.03	31.1 ± 1.39	
N.N.[Cl][Pt][Cl] [Cisplatin, reference compound]															IC50 (NCI-H460 tumor cell line): 18.9 ± 1.02 µM; Inhibition rate NCI-H460 (NCI-H460 tumor cell line; [4]): 50.88±3.69; IC50 [1]: 5.63 ± 0.32 µM; Inhibition rate HL-7702 [1, 4]: 73.58±2.30; Inhibition rate HepG2 (HepG2 tumor cell line; [4]): 60.63±0.99; IC50 (T-24 tumor cell line): 28.1 ± 1.88 µM; Inhibition rate T-24 (T-24 tumor cell line; [4]): 47.58±2.65; IC50 (BEL-7404 tumor cell line): 12.4 ± 0.38 µM; Inhibition rate BEL-7404 (BEL-7404 tumor cell line; [4]): 55.15±1.18
COC(=O)C1=NN(c2cccc(Br)n2)C2(C(C(=O)OC)=NN(c3cccc(Br)n3)C2O)C1(C(=O)OC)c1c(C(=O)OC)nn(-c2cccc(Br)n2)c1O (stereo not shown) [Compound 4, Trimethyl-1,8-bis(6-bromopyridin-2-yl)-4-(1-(6-bromopyridin-2-yl)-5-hydroxy-3-(methoxycarbonyl)-1H-pyrazol-4-yl)-9-hydroxy-1,2,7,8-tetraazaspiro[4.4]nona-2,6-diene-3,4,6-tricarboxylate]	66.48 ± 0.57	33.6 ± 1.38	96.14 ± 0.49	35.1 ± 1.34	10.7 ± 0.38	53.3 ± 0.92		9.02	42.9 ± 1.41	43.2 ± 1.15	41.81 ± 0.37	39.6 ± 1.43	28.1 ± 1.01	40.2 ± 0.44	Increase in HepG2 cytotoxicity compared to the free ligand 5 (HepG2 tumor cell line; IC50 of 5 relative to IC50 of 4, HepG2): approximately 16.44 fold
